Assays:
Format in all cases: biochemical
Mer = target: T1, Mer (Homo sapiens, UniProt Q12866); experiment: Mer kinase inhibition IC50; conditions: Example 6; read-out: MerTK IC50
T1 sequence (Q12866 21-999): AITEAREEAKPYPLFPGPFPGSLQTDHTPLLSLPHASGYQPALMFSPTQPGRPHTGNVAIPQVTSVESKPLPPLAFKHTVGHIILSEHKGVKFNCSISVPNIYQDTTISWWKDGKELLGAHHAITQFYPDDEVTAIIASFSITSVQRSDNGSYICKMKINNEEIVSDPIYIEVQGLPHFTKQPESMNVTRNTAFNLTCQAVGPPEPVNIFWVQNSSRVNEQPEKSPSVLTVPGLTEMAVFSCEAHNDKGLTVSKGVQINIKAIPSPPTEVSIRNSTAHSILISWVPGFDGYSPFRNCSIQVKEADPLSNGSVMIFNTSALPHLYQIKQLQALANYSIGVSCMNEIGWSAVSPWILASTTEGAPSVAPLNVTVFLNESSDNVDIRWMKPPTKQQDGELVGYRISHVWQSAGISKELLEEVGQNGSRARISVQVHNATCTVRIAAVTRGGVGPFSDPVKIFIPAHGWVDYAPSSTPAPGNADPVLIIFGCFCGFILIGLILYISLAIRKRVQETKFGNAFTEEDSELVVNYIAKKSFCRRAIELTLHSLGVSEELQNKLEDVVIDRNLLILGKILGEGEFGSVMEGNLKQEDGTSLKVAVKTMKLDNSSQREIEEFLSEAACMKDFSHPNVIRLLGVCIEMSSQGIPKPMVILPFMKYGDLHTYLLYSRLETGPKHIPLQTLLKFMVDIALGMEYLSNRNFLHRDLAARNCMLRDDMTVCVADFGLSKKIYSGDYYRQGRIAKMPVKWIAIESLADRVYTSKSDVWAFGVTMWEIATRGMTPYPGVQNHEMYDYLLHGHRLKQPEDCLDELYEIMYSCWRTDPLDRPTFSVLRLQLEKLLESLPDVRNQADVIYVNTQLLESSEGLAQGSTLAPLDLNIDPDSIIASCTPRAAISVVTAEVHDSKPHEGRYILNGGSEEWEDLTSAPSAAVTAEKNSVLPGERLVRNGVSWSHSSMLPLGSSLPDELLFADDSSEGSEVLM

Axl = target: T2, Axl (Homo sapiens, UniProt P30530); experiment: Axl kinase inhibition IC50; conditions: Example 6
T2 sequence (P30530 26-894): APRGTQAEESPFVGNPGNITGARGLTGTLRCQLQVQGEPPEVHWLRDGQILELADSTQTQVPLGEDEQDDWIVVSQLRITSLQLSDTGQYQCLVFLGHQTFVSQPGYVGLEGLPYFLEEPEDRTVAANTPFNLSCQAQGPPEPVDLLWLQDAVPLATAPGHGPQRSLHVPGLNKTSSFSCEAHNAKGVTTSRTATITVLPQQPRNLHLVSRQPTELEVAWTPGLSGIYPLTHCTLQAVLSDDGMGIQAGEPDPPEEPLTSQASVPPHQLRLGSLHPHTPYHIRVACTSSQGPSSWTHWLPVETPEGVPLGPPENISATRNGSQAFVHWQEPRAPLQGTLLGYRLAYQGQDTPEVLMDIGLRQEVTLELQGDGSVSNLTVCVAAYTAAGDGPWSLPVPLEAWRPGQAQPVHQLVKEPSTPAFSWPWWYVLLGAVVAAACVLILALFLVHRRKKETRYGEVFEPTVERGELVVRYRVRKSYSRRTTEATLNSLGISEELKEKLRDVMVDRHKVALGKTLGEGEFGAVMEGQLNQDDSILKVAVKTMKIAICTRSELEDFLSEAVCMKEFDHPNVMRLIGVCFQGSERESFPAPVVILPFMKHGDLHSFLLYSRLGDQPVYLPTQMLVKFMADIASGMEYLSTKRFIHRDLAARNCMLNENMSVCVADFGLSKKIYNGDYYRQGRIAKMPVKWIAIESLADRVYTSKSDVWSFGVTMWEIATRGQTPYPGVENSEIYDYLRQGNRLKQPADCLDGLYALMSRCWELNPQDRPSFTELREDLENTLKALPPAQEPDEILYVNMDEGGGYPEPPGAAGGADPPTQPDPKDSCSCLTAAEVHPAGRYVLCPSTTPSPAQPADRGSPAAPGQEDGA

Tyro3 = target: T3, Tyro3 (Homo sapiens, UniProt Q06418); experiment: Tyro3 kinase inhibition IC50; conditions: Example 6; read-out: Tyro IC50
T3 sequence (Q06418 41-890): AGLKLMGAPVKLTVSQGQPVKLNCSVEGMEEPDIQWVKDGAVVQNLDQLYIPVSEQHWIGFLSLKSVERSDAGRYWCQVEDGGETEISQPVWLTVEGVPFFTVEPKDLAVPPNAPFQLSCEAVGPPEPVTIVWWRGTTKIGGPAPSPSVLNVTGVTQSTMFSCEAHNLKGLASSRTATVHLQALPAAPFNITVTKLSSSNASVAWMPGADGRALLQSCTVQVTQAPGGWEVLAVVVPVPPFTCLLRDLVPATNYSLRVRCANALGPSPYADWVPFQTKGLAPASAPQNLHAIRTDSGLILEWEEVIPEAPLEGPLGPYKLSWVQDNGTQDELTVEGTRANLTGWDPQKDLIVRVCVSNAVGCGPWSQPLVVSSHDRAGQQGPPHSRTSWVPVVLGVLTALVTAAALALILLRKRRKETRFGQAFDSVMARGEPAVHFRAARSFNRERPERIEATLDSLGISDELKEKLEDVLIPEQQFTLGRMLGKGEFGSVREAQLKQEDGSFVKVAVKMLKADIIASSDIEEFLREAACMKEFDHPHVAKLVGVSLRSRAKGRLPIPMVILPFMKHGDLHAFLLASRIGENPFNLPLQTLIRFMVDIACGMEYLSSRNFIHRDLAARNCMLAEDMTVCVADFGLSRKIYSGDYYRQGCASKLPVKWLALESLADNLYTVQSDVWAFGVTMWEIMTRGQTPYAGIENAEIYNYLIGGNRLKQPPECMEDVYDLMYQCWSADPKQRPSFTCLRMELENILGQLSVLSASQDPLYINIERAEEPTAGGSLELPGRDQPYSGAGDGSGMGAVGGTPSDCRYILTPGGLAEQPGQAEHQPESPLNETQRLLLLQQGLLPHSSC

FLT3 = target: T4, FLT3 (Homo sapiens, UniProt P36888); experiment: FLT3 kinase inhibition IC50; conditions: Example 6
T4 sequence (P36888 27-993): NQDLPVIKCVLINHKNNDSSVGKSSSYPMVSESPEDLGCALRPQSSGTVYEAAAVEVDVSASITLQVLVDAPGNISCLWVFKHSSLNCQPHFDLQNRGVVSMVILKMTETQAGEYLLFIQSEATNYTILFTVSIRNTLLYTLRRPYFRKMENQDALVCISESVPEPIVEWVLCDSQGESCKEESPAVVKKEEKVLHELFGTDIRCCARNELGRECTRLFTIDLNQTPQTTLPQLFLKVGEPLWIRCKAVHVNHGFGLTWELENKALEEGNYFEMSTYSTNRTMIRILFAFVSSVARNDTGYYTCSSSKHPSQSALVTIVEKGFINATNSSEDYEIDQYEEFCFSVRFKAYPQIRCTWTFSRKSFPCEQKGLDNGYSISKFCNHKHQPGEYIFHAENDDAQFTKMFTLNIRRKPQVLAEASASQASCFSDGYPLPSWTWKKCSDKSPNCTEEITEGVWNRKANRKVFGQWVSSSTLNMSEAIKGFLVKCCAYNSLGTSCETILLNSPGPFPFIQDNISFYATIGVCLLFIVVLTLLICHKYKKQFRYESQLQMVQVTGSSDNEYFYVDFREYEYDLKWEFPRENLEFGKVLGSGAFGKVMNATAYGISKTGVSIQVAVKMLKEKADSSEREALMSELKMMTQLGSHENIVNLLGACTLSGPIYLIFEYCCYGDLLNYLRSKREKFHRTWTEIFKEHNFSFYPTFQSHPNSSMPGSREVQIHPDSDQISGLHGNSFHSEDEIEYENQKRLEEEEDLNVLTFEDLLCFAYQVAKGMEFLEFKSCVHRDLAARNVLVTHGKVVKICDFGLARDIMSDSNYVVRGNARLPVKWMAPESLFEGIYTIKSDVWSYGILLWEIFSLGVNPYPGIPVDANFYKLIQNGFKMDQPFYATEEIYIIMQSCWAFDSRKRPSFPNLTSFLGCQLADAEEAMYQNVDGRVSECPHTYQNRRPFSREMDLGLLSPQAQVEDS

An IC50 (Mer) of 550 nM, an IC50 (Axl) of 7 µM and an IC50 (Tyro3) of 15 µM were found for `CCCCN(C)c1ncc2c(-c3ccc(F)cc3)nn(C[C@H]3CC[C@H](N)CC3)c2n1` [UNC1653, reference compound] in this work. It also gave an IC50 (FLT3) of 220 nM.

— patent US10526309B2, “Pan-TAM inhibitors and Mer/Axl dual inhibitors” (The University of North Carolina at Chapel Hill, priority 2015, dated 2020)
